Measured values as given in publication PMC2816717, “Active Fragments from Pro- and Antiapoptotic BCL-2 Proteins Have Distinct Membrane Behavior Reflecting Their Functional Divergence” (PLoS ONE, 2010).

Key:
[1] = system: mitochondria isolated from HEK293T cells; assay: Cytochrome c release assay; type: biochemical; conditions: 10 µM peptide, 5 min incubation, 30°C, Western blot of supernatant and pellet
Experimental: Thus, we tested the ability of the different peptides to induce the release of mitochondrial proteins by incubating them with mitochondria isolated from HEK293T cells, and subsequently assaying the supernatant and pelleted fractions with antibodies for cytochrome c and mitoHSP70. […] On the other hand, incubation of mitochondria with 10 µM BID-α6 induced a slower release, with depletion of the mitochondrial pool of cytochrome c occurring only after 1 hour incubation.
Figure 7 Cytochrome c release assays. Peptides were incubated with isolated mitochondria for the indicated times (min) and the release of cytochrome c was monitored by Western blotting (IB). MitoHSP70 was used as an equal-loading control for the pellet fraction. Control lanes indicate that in the preparation the MOM is intact and cytochrome c is retained within the intermembrane space. A. Cytochrome c release assays for the first (BAX-α5S, BCLX-α5S, BID-α6) and second helices (BAX-α6, BCLX-α6, BID-α7) of the ‘pore domain’ of BAX, BCL-xL and BID using mitochondria isolated from HEK293T cells. B. Cytochrome c release assays for BAX-α5M and BAX-α5MS using mitochondria isolated from MEF and MEK BAX/BAK -/- double knock-out cells (MEF DKO). C. Cytochrome c release assays for the BH3 peptides.
Crude mitochondria were prepared from HEK 293T, mouse embryo fibroblast (MEF) or BAX/BAK double knockout MEF cells (MEF-DKO). In brief, cells were mechanically broken using a 2 ml glass/glass Dounce homogenizer (Kontes) (30 strokes). Homogenates were cleared at 1500 g and mitochondria were spun down at 10 000 g. For cytochrome c release assays, 30 µg of crude mitochondria were resuspended at 1 mg/ml in KCl buffer supplemented with succinate (5 mM) and EGTA (0.5 mM). Peptides (2.5, 10 or 25 µM) were added to the samples and incubations were carried out at 30°C under agitation (300 rpm). At the indicated time points, samples were centrifuged (5 min, 10 000 g, 4°C); supernatants and pellets were recovered and analyzed by immunoblotting for Cytochrome c and mitoHsp70.

[2] = Langmuir monolayer penetration assay, lipid mixture not singled out (Figure 5); type: physicochemical; conditions: Figure 5A; πi 5 mN/m, peptide 0.2 µM, Hepes pH 7.4, duplicate
Source text: (§1) For the biophysical characterization of membrane active protein fragments, we have used Langmuir monolayers as in vitro model of lipid membranes. These supramolecular lipid films formed at the air-water interface are attractive membrane models, widely used for studying peptide-lipid interactions, [56], [57]. We have investigated the binding of peptides derived from the central helices of BAX, BCL-xL and BID at physiological pH with model phospholipid monolayers of a composition that imitates mitochondrial membranes. For this purpose we selected fragments encompassing the sequences corresponding to the first or second α-helices of the core hairpins of BAX, BCL-xL and BID, as defined in the water-soluble protein structures, [17], [19]. Because the structures of those proteins in a membrane environment is currently unavailable, for the case of the first hairpin helix of BAX and BCL-xL (α5) we analyzed both a short version (labeled “S”), including only the reported α-helical residues, and a long version (labeled “L”) that extends a few residues beyond the α-helix stretch at both ends. Divergence of the BID sequence precluded unambiguous alignment with the other two proteins and a similar peptide design. Peptides corresponding to the BH3 domain of BAX, BCL-xL and BID were also included in the study. The sequence and some general properties of the peptides analyzed in this study are described in Table 1 and Figure 1). Lipid mixtures of POPC/DOPE (2∶1) and POPC/DOPE/CL (1∶1∶1) were chosen to mimic the MOM and the contact sites between inner and outer mitochondrial membrane (MIM/MOM), respectively. Penetration assays were carried out at constant area by spreading the lipids at the air-buffer interface, compressing the film at πi = […] and then injecting the peptides into the subphase at a concentration of 0.2 µM (see Material and Methods). Subsequent peptide binding results typically in an increase of surface pressure. Thus, the peptide-monolayer interaction can be characterized by measurable kinetic properties, such as the initial velocity of surface pressure increase (Vi), which informs about the affinity of the peptide for the lipid-water interface, and the final increase of surface pressure (πmax), which can be related to the insertion ability of the peptide into the monolayer.
Figure 5 Changes in surface pressure after peptide injection. Peptides were injected underneath POPC/DOPE or POPC/DOPE/CL monolayers at constant area. A. Final increase of surface pressure πmax (mN/m) obtained for the different peptides. The dashed line denotes the threshold (Δπ = 4.8 mN/m) for significant surface pressure variation as determined using BAX-α5S without lipids (see text). B. Initial velocity of surface pressure increase (Vi = Δπ/s).
(§2) Monolayer experiments were performed on a computer-controlled Langmuir film balance (KSV 2000, three multi-compartment system, KSV Instrument Ltd., Finland) working in a symmetrical compression mode and enclosed in an opaque cabinet. The rectangular trough (V = 85 mL ±1 mL, S = 119.25 cm^2) was made of Teflon and the mobile barriers were made in Delrin. The surface pressure, π defined as γ0 – γ, where γ0 is the surface tension of the pure aqueous subphase and γ the surface tension exerted by phospholipids at the subphase surface, was measured by the Wilhelmy's method using a platinum plate with an accuracy of ±0.05 mN/m. The trough was filled with Hepes buffer (pH 7.4), used as subphase and thermostated with a water circulating bath (Lauda E100, LAUDA France, SARL). In all experiments, the subphase temperature was maintained at a constant value of 22.5±0.5°C.
Phospholipid monolayers were formed by deposition of 14 µl of spreading solutions at a clean air/buffer interface by means of a micropipette to reach a final amount of 14 nmol of phospholipids. […]

[3] = Langmuir monolayer penetration assay at constant area; type: physicochemical; conditions: POPC/DOPE/CL
Source text: as §1, §2
Phospholipid monolayers were formed by deposition of 14 µl of spreading solutions at a clean air/buffer interface by means of a micropipette to reach a final amount of 14 nmol of phospholipids. After complete evaporation of the solvent (∼15 min), the monolayer was slowly compressed up to a defined lateral pressure (initial surface pressure πi) at a rate of 0.045 nm^2 molecule^−1 min^−1. The value of πi = 5 mN/m was chosen because it lies between the surface pressure set-off and surface pressures (e.g. 30 mN/m, which corresponds to a tightly packed film) where many peptides of the study will not insert. […]

Sequence: WGRVVALFYFASKLVLKALSTK [BAX-α5S, short peptide of the first helix (α5) of the central hairpin of BAX]
- cytochrome c release, in words [1]: complete depletion of all mitochondrial cytochrome c
- final increase of surface pressure πmax (insertion), in words [2]: highest increases in surface pressure
- surface pressure increase (Δπ) with lipid monolayer ([3]; initial surface pressure 5 mN/m, peptide 0.2 µM in subphase, Hepes pH 7.4, 22.5°C, constant area): 32.1 mN/m
- πmax (plateau surface pressure after peptide injection) ([3]; πi = 5 mN/m, peptide injected underneath monolayer, compression-decompression experiment): 32.1 mN/m
- exclusion pressure (πex) ([3]; extrapolation of linear Δπ versus πi plot to Δπ = 0): 33 mN/m
